Read-outs that look alike come from different tables or passages of the source.
Target: ALP in normal human articular chondrocytes (NHACs)
Assay: Alkaline Phosphatase (ALP) activity assay (staining and quantitation) in NHACs, prevention of chondrocyte hypertrophy
Format: cell-based
Conditions: human IL-1 beta 10 ng/mL, 12 days; for IC50: Fast Blue RR staining, high content imaging, read-out: ALP in NHAC IC50; for ALP in NHAC (% Efficacy) / Emax: value in parentheses; for Emax: read-out: ALP in NHAC (% Efficacy)
Procedure, shortened: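 Primary human articular chondrocytes plated at 7,500 cells/well in DMEM with 10% FBS alongside test compound, incubated 5 h at 37 °C, then given IL-1β (10 ng/mL final) for 12 days. Fixed cells stained for ALP with Fast Blue RR/naphthol AS-MX, Hoechst counterstain. Read by fluorescence imaging (561 nm) and/or high-content cell scoring.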

SMILES | IC50 [µM] | ALP in NHAC (% Efficacy) [%] | IC50 (Chondrocyte, 288 h) [µM] | Emax (Chondrocyte, 288 h) [%]
Cn1cc([C@H]2[C@H]3O[C@H](C[C@@H]3O)[C@@H]2C(=O)Nc2cc(C(F)(F)F)c(Cl)cn2)c(C(F)(F)F)n1 (single isomer, unassigned) [Example 36a, (1R 2R,3S,4R,5S)—N-(5-chloro-4-(trifluoromethyl)pyridin-2-yl)-5-hydroxy-3-(1-methyl-3-(trifluoromethyl)-1H-pyrazol-4-yl)-7-oxabicyclo[2.2.1]heptane-2-carboxamide or (1S,2S,3R,4S,5R)—N-(5-chloro-4-(trifluoromethyl)pyridin-2-yl)-5-hydroxy-3-(1-methyl-3-(trifluoromethyl)-1H-pyrazol-4-yl)-7-oxabicyclo[2.2.1]heptane-2-carboxamide] | 9.4 | 95 |  | 
CC(C)n1cc([C@H]2[C@H]3O[C@H](C[C@@H]3O)[C@@H]2C(=O)Nc2cc(C(F)(F)F)ccc2F)c(C(F)(F)F)n1 (racemic) [Example 85, rac-(1R,2R,3S,4R,5S)—N-(2-fluoro-5-(trifluoromethyl)phenyl)-5-hydroxy-3-(1-isopropyl-3-(trifluoromethyl-1H-pyrazol-4-yl-7-oxabicyclo[2.2.1]heptane-2-carboxamide] |  |  | > 30 | 44
Cn1cc([C@H]2[C@H]3O[C@H](C[C@@H]3O)[C@@H]2C(=O)Nc2cc(C(F)(F)F)ccc2F)c(C(F)(F)F)n1 (racemic) [Example 52, rac-(1R,2R,3S,4R,5S)—N-(2-fluoro-5-(trifluoromethyl)phenyl)-5-hydroxy-3-(1-methyl-3-(trifluoromethyl)-1H-pyrazol-4-yl)-7-oxabicyclo[2.2.1]heptane-2-carboxamide] |  |  | 4.2 | 73
O=C(Nc1cc(Cl)cc(C(F)(F)F)c1)[C@@H]1[C@@H](c2cccc(C(F)(F)F)c2)[C@H]2O[C@@H]1C[C@@H]2O (racemic) [Example 19, rac-(1R,2R,3S,4R,5)-N-(3-chloro-5-(trifluoromethyl)phenyl)-5-hydroxy-3-(3-(trifluoromethyl)phenyl)-7-oxabicyclo[2.2.1]heptane-2-carboxamide] |  |  | 11 | 102
Cn1cc([C@H]2[C@H]3O[C@H](C[C@@H]3O)[C@@H]2C(=O)Nc2cc(C(F)(F)F)cc(C3CC3)n2)c(C(F)(F)F)n1 (racemic) [Example 40, rac-(1R,2R,3S,4R,5S)—N-(6-cyclopropyl-4-(trifluoromethyl)pyridin-2-yl)-5-hydroxy-3-(1-methyl-3-(trifluoromethyl)-1H-pyrazol-4-yl)-7-oxabicyclo[2.2.1]heptane-2-carboxamide] |  |  | 10 | 83
Cn1cc([C@H]2[C@H]3O[C@H](C[C@@H]3O)[C@@H]2C(=O)Nc2cc(C(F)(F)F)ccn2)c(C(F)(F)F)n1 (single isomer, unassigned) [Example 38b, (1R,2R,3S,4R,5S)-5-hydroxy-3-(1-methyl-3-(trifluoromethyl)-1H-pyrazol-4-yl)-N-(4-(trifluoromethyl)pyridin-2-yl)-7-oxabicyclo[2.2.1]heptane-2-carboxamide or (1S,2S,3R,4S,5R)-5-hydroxy-3-(1-methyl-3-(trifluoromethyl)-1H-pyrazol-4-yl)-N-(4-(trifluoromethyl)pyridin-2-yl)-7-oxabicyclo[2.2.1]heptane-2-carboxamide] | > 30 | 27 |  | 
Cn1cc([C@H]2[C@H]3O[C@H](C[C@@H]3O)[C@@H]2C(=O)Nc2cc(F)cc(C(F)(F)F)c2)c(C(F)(F)F)n1 (racemic) [Example 45, rac-(1R,2R,3S,4R,5S)—N-(3-fluoro-5-(trifluoromethyl)phenyl)-5-hydroxy-3-(1-methyl-3-(trifluoromethyl)-1H-pyrazol-4-yl)-7-oxabicyclo[2.2.1]heptane-2-carboxamide] |  |  | 7 | 61
O=C(Nc1cc(F)cc(C(F)(F)F)c1)[C@@H]1[C@@H](c2cccc(C(F)(F)F)c2)[C@H]2O[C@@H]1C[C@@H]2O (racemic) [Example 17, rac-(1R,2R,3S,4R,5S)—N-(3-fluoro-5-(trifluoromethyl)phenyl)-5-hydroxy-3-(3-(trifluoromethyl)phenyl)-7-oxabicyclo[2.2.1]heptane-2-carboxamide] |  |  | 13 | 105

Reference: patent US12257243B2, “5-hydroxy-7-oxabicyclo[2.2.1]heptane-2-carboxamide derivatives for inducing chondrogenesis for treating joint damage” (NOVARTIS AG, priority 2018, dated 2025)
